Publication doi:10.1101/2023.11.24.568596v1 (biorxiv, 2023)

Assays:
Settings in all cases: binder
PIM3 = PIM3 (Homo sapiens, UniProt Q86V86)
JNK2 = JNK2 (Homo sapiens, UniProt P45984)
PAK1 = PAK1 (Homo sapiens, UniProt Q13153)
MELK = MELK (Homo sapiens, UniProt Q14680)
MST1 = target: T1, MST1 (Homo sapiens, UniProt Q13043)
T1 sequence (Q13043 1-487): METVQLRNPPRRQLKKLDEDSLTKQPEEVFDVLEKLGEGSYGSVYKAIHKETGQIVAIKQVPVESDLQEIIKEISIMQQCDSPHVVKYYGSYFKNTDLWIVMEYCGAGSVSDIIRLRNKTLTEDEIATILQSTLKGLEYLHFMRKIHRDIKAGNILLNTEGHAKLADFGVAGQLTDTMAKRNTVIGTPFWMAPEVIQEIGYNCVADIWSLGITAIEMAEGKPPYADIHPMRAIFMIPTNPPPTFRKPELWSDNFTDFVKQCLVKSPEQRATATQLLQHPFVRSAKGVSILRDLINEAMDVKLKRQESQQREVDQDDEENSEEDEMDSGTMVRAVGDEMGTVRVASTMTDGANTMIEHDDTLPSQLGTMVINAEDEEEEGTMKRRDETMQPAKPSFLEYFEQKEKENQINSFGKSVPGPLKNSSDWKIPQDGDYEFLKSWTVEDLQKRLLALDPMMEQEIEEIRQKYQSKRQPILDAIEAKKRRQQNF

FLT1 = FLT1 (Homo sapiens, UniProt P17948)
EphA7 = EphA7 (Homo sapiens, UniProt Q15375)
CaMK2d = CaMK2d (Homo sapiens, UniProt Q13557)
MRCKa = MRCKa (Homo sapiens, UniProt Q5VT25)
p38a = p38a (Homo sapiens, UniProt Q16539)
CK1d = CK1d (Homo sapiens, UniProt P48730)
AKT3 = AKT3 (Homo sapiens, UniProt Q9Y243)
CLK3 = CLK3 (Homo sapiens, UniProt P49761)
CaMK1d = CaMK1d (Homo sapiens, UniProt Q8IU85)
DAPK3 = DAPK3 (Homo sapiens, UniProt O43293)
PAK4 = PAK4 (Homo sapiens, UniProt O96013)
EphA5 = EphA5 (Homo sapiens, UniProt P54756)
DMPK1 = target: T2, DMPK1 (Homo sapiens, UniProt Q09013)
T2 sequence (Q09013 1-629): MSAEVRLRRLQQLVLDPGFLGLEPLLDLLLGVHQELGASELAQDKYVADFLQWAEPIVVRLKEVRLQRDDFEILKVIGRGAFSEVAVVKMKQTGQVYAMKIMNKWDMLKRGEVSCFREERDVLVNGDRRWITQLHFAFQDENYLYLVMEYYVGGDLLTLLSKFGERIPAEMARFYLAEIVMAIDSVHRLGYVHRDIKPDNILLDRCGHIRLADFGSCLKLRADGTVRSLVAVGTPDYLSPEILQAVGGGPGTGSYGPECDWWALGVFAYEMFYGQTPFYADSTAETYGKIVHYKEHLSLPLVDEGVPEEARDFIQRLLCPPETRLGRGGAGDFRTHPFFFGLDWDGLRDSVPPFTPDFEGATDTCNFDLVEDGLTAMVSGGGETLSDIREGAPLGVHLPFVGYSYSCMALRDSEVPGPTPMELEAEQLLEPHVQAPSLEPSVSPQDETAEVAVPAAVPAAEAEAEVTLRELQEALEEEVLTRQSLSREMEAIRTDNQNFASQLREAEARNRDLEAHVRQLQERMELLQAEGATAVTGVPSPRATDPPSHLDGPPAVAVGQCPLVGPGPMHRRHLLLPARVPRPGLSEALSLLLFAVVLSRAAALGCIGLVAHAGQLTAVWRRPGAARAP

FGFR1 = FGFR1 (Homo sapiens, UniProt P11362)
Erk2 = Erk2 (Homo sapiens, UniProt P28482)
Sequence of Erk2 (P28482 whole entry): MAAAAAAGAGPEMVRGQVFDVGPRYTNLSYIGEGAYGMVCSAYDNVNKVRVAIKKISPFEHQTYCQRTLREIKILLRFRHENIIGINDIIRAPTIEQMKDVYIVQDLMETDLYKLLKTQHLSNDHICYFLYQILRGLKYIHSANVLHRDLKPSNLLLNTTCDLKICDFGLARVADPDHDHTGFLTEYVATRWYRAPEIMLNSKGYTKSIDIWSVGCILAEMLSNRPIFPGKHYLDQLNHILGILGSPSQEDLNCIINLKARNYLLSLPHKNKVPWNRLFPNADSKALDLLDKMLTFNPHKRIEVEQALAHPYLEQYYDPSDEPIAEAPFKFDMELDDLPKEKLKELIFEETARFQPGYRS

Sequence of EphA5 (P54756 whole entry): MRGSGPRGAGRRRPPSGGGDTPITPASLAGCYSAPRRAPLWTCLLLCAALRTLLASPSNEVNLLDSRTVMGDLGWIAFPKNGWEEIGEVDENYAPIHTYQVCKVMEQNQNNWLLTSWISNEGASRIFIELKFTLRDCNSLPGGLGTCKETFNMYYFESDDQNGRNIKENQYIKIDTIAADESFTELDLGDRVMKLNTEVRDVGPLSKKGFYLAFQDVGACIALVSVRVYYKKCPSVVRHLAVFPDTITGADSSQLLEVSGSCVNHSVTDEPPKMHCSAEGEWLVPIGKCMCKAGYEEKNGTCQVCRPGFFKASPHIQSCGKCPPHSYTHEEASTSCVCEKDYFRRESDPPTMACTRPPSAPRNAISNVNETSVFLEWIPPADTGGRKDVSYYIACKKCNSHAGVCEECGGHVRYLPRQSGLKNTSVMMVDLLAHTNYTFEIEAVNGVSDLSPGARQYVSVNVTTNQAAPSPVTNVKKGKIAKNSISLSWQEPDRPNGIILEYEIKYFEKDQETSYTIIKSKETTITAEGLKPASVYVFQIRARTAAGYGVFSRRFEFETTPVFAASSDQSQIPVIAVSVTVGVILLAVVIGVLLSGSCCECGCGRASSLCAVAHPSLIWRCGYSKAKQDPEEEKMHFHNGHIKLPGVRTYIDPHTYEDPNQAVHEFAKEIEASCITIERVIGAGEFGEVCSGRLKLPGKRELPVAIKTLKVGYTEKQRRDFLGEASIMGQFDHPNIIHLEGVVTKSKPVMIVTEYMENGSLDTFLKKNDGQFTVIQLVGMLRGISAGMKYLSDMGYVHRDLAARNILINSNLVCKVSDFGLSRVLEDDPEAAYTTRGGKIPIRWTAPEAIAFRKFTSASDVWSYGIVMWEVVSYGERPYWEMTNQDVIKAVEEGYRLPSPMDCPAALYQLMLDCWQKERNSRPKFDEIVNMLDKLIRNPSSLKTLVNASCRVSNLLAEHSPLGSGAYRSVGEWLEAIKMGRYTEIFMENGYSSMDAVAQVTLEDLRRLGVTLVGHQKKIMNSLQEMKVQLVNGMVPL
Sequence of CaMK2d (Q13557 whole entry): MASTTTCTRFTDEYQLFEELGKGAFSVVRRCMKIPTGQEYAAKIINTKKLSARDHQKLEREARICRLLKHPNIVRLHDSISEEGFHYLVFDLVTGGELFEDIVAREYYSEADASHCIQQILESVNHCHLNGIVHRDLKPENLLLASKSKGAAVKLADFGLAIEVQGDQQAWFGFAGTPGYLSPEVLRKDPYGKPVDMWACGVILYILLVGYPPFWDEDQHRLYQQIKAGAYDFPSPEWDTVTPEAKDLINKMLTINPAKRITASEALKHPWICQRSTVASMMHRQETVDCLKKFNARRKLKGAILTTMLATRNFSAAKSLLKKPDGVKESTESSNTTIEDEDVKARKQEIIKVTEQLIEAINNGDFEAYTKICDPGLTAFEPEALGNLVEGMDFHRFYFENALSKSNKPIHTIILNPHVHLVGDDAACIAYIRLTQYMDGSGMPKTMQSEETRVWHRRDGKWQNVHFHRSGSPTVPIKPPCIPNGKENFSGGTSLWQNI
Sequence of PAK4 (O96013 whole entry): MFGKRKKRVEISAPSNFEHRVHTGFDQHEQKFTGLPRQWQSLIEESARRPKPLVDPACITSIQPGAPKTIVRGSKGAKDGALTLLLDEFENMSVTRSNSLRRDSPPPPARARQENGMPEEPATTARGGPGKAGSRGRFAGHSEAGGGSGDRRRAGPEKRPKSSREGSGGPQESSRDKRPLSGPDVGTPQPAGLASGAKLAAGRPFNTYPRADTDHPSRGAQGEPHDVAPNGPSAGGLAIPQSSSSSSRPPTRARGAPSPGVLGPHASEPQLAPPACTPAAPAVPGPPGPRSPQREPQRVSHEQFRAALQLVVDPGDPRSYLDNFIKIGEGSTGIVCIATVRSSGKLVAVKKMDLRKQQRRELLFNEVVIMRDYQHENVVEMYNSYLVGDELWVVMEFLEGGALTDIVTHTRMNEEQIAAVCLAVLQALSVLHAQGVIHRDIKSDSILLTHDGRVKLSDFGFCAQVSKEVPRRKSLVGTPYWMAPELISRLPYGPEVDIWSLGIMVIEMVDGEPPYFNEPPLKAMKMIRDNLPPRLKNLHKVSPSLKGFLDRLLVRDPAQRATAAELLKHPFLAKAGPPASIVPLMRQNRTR
Sequence of DAPK3 (O43293 whole entry): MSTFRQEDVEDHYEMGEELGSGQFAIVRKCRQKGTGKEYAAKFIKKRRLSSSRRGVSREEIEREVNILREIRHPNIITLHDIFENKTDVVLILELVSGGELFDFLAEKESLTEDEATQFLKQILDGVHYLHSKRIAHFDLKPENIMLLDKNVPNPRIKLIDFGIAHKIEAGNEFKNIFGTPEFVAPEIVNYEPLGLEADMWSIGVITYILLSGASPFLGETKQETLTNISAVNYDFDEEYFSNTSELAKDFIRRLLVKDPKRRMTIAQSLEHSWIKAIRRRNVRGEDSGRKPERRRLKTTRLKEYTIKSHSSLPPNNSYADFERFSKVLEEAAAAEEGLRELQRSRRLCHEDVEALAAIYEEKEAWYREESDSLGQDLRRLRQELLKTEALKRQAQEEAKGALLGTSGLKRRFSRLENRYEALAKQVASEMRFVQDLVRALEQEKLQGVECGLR
Sequence of CLK3 (P49761 whole entry): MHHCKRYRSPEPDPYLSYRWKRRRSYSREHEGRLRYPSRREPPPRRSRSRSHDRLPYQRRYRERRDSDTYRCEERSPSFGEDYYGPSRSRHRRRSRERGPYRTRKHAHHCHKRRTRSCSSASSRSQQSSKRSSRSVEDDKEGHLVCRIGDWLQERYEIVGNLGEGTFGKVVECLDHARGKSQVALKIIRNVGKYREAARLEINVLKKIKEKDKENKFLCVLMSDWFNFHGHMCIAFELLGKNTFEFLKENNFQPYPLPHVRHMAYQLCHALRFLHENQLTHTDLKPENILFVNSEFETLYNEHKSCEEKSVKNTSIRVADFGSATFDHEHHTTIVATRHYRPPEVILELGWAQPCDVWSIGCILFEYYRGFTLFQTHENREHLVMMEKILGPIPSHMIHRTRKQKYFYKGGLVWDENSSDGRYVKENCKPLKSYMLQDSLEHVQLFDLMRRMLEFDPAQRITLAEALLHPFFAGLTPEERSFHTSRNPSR
Sequence of p38a (Q16539 whole entry): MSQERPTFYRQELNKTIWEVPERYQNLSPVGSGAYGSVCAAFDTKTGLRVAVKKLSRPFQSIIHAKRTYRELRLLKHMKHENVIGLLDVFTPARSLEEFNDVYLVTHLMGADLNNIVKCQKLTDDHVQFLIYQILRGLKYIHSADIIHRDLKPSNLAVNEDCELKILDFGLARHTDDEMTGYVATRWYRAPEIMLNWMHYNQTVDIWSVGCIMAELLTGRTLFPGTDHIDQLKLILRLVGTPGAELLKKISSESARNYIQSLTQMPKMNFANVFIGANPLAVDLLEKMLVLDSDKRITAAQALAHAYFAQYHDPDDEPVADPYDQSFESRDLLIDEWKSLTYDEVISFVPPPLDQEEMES
Sequence of CK1d (P48730 whole entry): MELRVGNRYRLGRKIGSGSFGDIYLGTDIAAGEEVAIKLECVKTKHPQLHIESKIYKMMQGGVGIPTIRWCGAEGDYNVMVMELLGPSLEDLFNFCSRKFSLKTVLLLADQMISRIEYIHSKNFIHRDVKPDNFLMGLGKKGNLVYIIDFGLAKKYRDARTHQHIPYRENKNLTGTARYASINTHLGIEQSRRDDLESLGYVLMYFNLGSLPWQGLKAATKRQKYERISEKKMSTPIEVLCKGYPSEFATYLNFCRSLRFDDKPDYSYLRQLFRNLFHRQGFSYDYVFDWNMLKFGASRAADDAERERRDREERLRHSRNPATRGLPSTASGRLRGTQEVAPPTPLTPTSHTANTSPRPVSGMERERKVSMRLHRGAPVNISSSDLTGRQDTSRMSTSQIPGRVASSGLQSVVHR
Sequence of CaMK1d (Q8IU85 whole entry): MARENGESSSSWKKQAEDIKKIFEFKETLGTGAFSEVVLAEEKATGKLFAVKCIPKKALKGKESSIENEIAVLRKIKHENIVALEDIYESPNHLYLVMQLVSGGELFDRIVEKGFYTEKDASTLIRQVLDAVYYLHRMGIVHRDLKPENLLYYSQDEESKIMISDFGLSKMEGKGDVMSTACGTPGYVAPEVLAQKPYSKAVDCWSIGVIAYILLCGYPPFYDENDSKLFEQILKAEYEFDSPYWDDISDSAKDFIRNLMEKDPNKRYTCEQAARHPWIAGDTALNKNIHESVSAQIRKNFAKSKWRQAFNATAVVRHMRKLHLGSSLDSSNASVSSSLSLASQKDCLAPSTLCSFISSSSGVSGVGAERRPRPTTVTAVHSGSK

Cc1cccc(-c2ccc(-c3cc4cnc(NCCCc5ccc(N)cc5)nc4n(CCCCN)c3=O)c(Cl)c2)n1 [compound 25, 8-(4-Aminobutyl)-2-((3-(4-aminophenyl)propyl)amino)-6-(2-chloro-4-(6-methylpyridin-2-yl)phenyl)pyrido[2,3-d]pyrimidin-7(8H)-one]
ΔTm 25 (PIM3): -0.8 °C | ΔTm 25 (JNK2): 2.6 °C | ΔTm 25 (PAK1): 8.3 °C | ΔTm 25 (MELK): 2.4 °C | ΔTm 25 (MST1): -1.4 °C | ΔTm 25 (FLT1): 3.5 °C | ΔTm 25 (EphA7): 5.1 °C | ΔTm 25 (CaMK2d): -0.2 °C | ΔTm 25 (MRCKa): 0.0 °C | ΔTm 25 (p38a): 6.1 °C | ΔTm 25 (CK1d): 3.1 °C | ΔTm 25 (AKT3): 2.0 °C | ΔTm 25 (CLK3): -0.3 °C | ΔTm 25 (CaMK1d): 5.3 °C | ΔTm 25 (DAPK3): 0.8 °C | ΔTm 25 (PAK4): 5.5 °C | ΔTm 25 (EphA5): 3.2 °C | ΔTm 25 (DMPK1): -2.7 °C | ΔTm 25 (FGFR1): -0.4 °C | ΔTm 25 (Erk2): 3.1 °C

CNc1ncc2cc(-c3ccc(-c4cccc(C)n4)cc3Cl)c(=O)n(C[C@H]3CC[C@H](N)CC3)c2n1 [compound 23, 23]
ΔTm 23 (PIM3): 0.3 °C | ΔTm 23 (JNK2): 1.3 °C | ΔTm 23 (PAK1): 8.9 °C | ΔTm 23 (MELK): 10.4 °C | ΔTm 23 (MST1): 7.9 °C | ΔTm 23 (FLT1): 4.9 °C | ΔTm 23 (EphA7): 10.4 °C | ΔTm 23 (CaMK2d): -0.2 °C | ΔTm 23 (MRCKa): 2.9 °C | ΔTm 23 (p38a): 6.7 °C | ΔTm 23 (CK1d): 2.3 °C | ΔTm 23 (AKT3): 3.7 °C | ΔTm 23 (CLK3): 1.0 °C | ΔTm 23 (CaMK1d): 9.5 °C | ΔTm 23 (DAPK3): 2.8 °C | ΔTm 23 (PAK4): 4.5 °C | ΔTm 23 (EphA5): 4.0 °C | ΔTm 23 (DMPK1): -2.8 °C | ΔTm 23 (FGFR1): 0.7 °C | ΔTm 23 (Erk2): 2.7 °C

CNc1ncc2cc(-c3ccc(-c4cccc(C)n4)cc3Cl)c(=O)n(CCCCN)c2n1 [compound 20, MRLW5]
ΔTm MRLW5 (20) (PIM3): -1.2 °C | ΔTm MRLW5 (20) (JNK2): 0.3 °C | ΔTm MRLW5 (20) (PAK1): 7.5 °C | ΔTm MRLW5 (20) (MELK): 8.0 °C | ΔTm MRLW5 (20) (MST1): 5.6 °C | ΔTm MRLW5 (20) (FLT1): 2.2 °C | ΔTm MRLW5 (20) (EphA7): 7.7 °C | ΔTm MRLW5 (20) (CaMK2d): 0.1 °C | ΔTm MRLW5 (20) (MRCKa): 1.0 °C | ΔTm MRLW5 (20) (p38a): 1.0 °C | ΔTm MRLW5 (20) (CK1d): 0.8 °C | ΔTm MRLW5 (20) (AKT3): 2.3 °C | ΔTm MRLW5 (20) (CLK3): 0.2 °C | ΔTm MRLW5 (20) (CaMK1d): 7.2 °C | ΔTm MRLW5 (20) (DAPK3): 1.4 °C | ΔTm MRLW5 (20) (PAK4): 4.8 °C | ΔTm MRLW5 (20) (EphA5): 3.3 °C | ΔTm MRLW5 (20) (DMPK1): 0.8 °C | ΔTm MRLW5 (20) (FGFR1): 0.4 °C | ΔTm MRLW5 (20) (Erk2): 1.3 °C

CNc1ncc2cc(-c3ccc(-c4cccc(C)n4)cc3Cl)c(=O)n(CCC3CCNCC3)c2n1 [compound 22, 6-(2-Chloro-4-(6-methylpyridin-2-yl)phenyl)-2-(methylamino)-8-(2-(piperidin-4-yl)ethyl)pyrido[2,3-d]pyrimidin-7(8H)-one]
ΔTm 22 (PIM3): -1.2 °C | ΔTm 22 (JNK2): 0.3 °C | ΔTm 22 (PAK1): 8.6 °C | ΔTm 22 (MELK): 8.5 °C | ΔTm 22 (MST1): 6.0 °C | ΔTm 22 (FLT1): 2.6 °C | ΔTm 22 (EphA7): 7.7 °C | ΔTm 22 (CaMK2d): 0.0 °C | ΔTm 22 (MRCKa): 1.8 °C | ΔTm 22 (p38a): 0.7 °C | ΔTm 22 (CK1d): 2.1 °C | ΔTm 22 (AKT3): 4.6 °C | ΔTm 22 (CLK3): -0.4 °C | ΔTm 22 (CaMK1d): 8.5 °C | ΔTm 22 (DAPK3): 2.4 °C | ΔTm 22 (PAK4): 4.7 °C | ΔTm 22 (EphA5): 4.1 °C | ΔTm 22 (DMPK1): -1.7 °C | ΔTm 22 (FGFR1): 1.1 °C | ΔTm 22 (Erk2): 2.8 °C

Cc1cccc(-c2ccc(-c3cc4cnc(NC(CO)CO)nc4n(CCCCN)c3=O)c(Cl)c2)n1 [compound 24, 8-(4-Aminobutyl)-6-(2-chloro-4-(6-methylpyridin-2-yl)phenyl)-2-((1,3-dihydroxypropan-2-yl)amino)pyrido[2,3-d]pyrimidin-7(8H)-one]
ΔTm MR24 (24) (PIM3): -1.9 °C | ΔTm MR24 (24) (JNK2): 0.4 °C | ΔTm MR24 (24) (PAK1): 6.9 °C | ΔTm MR24 (24) (MELK): 5.5 °C | ΔTm MR24 (24) (MST1): -0.6 °C | ΔTm MR24 (24) (FLT1): 1.0 °C | ΔTm MR24 (24) (EphA7): 0.3 °C | ΔTm MR24 (24) (CaMK2d): -0.2 °C | ΔTm MR24 (24) (MRCKa): -0.7 °C | ΔTm MR24 (24) (p38a): 2.8 °C | ΔTm MR24 (24) (CK1d): 1.2 °C | ΔTm MR24 (24) (AKT3): 1.0 °C | ΔTm MR24 (24) (CLK3): -0.2 °C | ΔTm MR24 (24) (CaMK1d): 0.5 °C | ΔTm MR24 (24) (DAPK3): 0.2 °C | ΔTm MR24 (24) (PAK4): 2.2 °C | ΔTm MR24 (24) (EphA5): -0.4 °C | ΔTm MR24 (24) (DMPK1): -1.3 °C | ΔTm MR24 (24) (FGFR1): 0.4 °C | ΔTm MR24 (24) (Erk2): -0.9 °C
